Here are results for five molecules from US20220340633A1 (Adepthera LLC, priority 2016, published 2022).

Test [1] has as its system primary human lymphatic endothelia cells (HLEC). The test can be described thus: HLEC survival in medium with 0.1% FBS, MTS assay. As to conditions: 30, 100, and 300 nM, 72 hrs. (In general: Formazan colour is commonly taken as a measure of viable cells.)
Protocol: (§1) The cells were cultured for 72 hrs, and cell viability was assayed with the MTS assay (Promega).
Test [2] has as its target T1, CLR/RAMP3 receptor (Homo sapiens, UniProt O60896+Q16602). The test can be described thus: CLR/RAMP3 cAMP receptor activation assay (agonist). Format: cell-based. On the set-up: host or cells: CHO-K1 cells. As to conditions: CHO-K1, read-out: CLR/RAMP 3 Max Activity % of positive control.
Protocol: (§2) Using a receptor activation assay, the dose-dependent stimulatory response of peptide agonists of the present invention on a CLR/RAMP1 receptor, a CLR/RAMP2, or a CLR/RAMP3 receptor complex was determined. A cell line carrying the recombinant CLR/RAMP1, CLR/RAMP2, or a CLR/RAMP3 receptor was employed in the assay. Peptide agonist activities were tested, in duplicate, at 10 different concentrations, starting with 1.0 μM and serially diluted 3-fold, in DMSO. […] The CLR/RAMP1 cAMP, CLR/RAMP2 arrestin assays, and CLR/RAMP3 cAMP (DiscoveRx, Fremont, Calif.) were used.
The next test has as its target T2, CLR/RAMP2 receptor (Homo sapiens, UniProt O60895+Q16602).
T2 construct: host or cells: CHO-K1 cells
The test can be described thus: CLR/RAMP2 arrestin receptor activation assay (agonist). Format: cell-based. As to conditions: for Emax: CHO-K1, read-out: CLR/RAMP 2 Max Activity % of positive control, CHO-K1 cells; for EC50: CHO-K1 cells stably expressing CLR/RAMP2, arrestin, positive control ADM, read-out: CLR/RAMP 2 EC50.

The test system of test [3] is primary human lymphatic endothelia cells (HLEC). The test can be described thus: HLEC proliferation in medium with 2% FBS, MTS assay. Particulars: 30, 100, and 300 nM, 72 hrs.
Protocol: as §1
The target of a further test is CLR/RAMP1 receptor (Homo sapiens, UniProt O60894+Q16602). The test can be described thus: CLR/RAMP1 cAMP receptor activation assay (agonist). On the set-up: host or cells: 1321N1 cells. Format: cell-based. As to conditions: for Emax: 1321-N1, read-out: CLR/RAMP 1 Max Activity % of positive control, 1321N1 cells, % of positive control (β-CGRP); for EC50: 1321N1 cells stably expressing CLR/RAMP1, cAMP, positive control β-CGRP, read-out: CLR/RAMP 1 EC50.
Sequence of CLR/RAMP1 receptor (Q16602 23-461): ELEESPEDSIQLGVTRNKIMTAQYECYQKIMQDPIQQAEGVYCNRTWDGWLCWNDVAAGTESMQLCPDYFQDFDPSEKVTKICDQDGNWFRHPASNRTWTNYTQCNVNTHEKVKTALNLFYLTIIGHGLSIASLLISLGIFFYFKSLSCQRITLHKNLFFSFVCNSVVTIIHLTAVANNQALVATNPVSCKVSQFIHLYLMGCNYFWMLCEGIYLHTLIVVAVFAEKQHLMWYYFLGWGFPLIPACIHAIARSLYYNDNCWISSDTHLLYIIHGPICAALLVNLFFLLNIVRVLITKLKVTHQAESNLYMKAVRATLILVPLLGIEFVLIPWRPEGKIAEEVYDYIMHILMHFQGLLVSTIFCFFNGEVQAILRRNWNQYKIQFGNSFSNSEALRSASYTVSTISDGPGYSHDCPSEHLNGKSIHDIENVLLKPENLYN
Sequence of CLR/RAMP1 receptor (O60894 27-148): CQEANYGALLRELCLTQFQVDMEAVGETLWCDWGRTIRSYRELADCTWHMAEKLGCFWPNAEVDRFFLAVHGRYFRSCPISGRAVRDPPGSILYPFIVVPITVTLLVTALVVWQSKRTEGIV

Test [4] addresses T1, CLR/RAMP3 receptor. Particulars: antagonist mode.
Protocol: as §2
For the analysis of antagonistic activity, the synthetic analogs were pre-incubated with the cells before adding the reference ligand at its EC80.

Structures are written as SMILES. Entries after “also recorded” stand apart in the source; their conditions may differ. Positions of bridges follow the written chain, without caps; N, C: chain ends. Non-standard residues stand in square brackets, D forms with d. Residues, ends and D or L forms follow the SMILES beside them. *: point of attachment. Palmitoyl = CCCCCCCCCCCCCCCC(=O)*; AEEA = NCCOCCOCC(=O)O

T2 sequence (Q16602 23-461): as the sequence (Q16602 23-461) above
T2 sequence (O60895 43-175): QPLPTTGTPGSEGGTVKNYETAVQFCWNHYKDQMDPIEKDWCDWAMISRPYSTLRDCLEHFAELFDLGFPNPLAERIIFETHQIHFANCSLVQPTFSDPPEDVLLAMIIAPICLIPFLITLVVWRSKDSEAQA
T1 sequence (Q16602 23-461): as the sequence (Q16602 23-461) above
T1 sequence (O60896 24-148): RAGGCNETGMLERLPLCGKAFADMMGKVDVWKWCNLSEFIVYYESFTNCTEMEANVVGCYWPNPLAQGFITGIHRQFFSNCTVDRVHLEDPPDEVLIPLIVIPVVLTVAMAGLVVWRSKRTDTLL
Protocol for CLR/RAMP1 receptor: as §2
Protocol for CLR/RAMP2 receptor: as §2

For `CCCCCCCCCCCCCCCC(=O)NCCCC[C@H](NC(=O)COCCOCCN)C(=O)NCC(=O)N[C@H]1CSSC[C@@H](C(=O)N[C@H](C(=O)N[C@H](C(=O)N[C@@H](CCC(N)=O)C(=O)N[C@@H](CCCCN)C(=O)N[C@@H](CC(C)C)C(=O)N[C@@H](C)C(=O)N[C@@H](Cc2c[nH]cn2)C(=O)N[C@@H](CCC(N)=O)C(=O)N[C@H](C(=O)N[C@@H](Cc2ccc(O)cc2)C(=O)N[C@@H](CCC(N)=O)C(=O)N[C@@H](Cc2ccccc2)C(=O)N[C@H](C(=O)N[C@@H](CC(=O)O)C(=O)N[C@@H](CCCCN)C(=O)N[C@@H](CC(=O)O)C(=O)N[C@@H](CCCCN)C(=O)N[C@@H](CC(=O)O)C(=O)N[C@@H](CC(N)=O)C(=O)N[C@H](C(=O)N[C@@H](C)C(=O)N2CCC[C@H]2C(=O)N[C@@H](CCCNC(=N)N)C(=O)N[C@@H](CO)C(=O)N[C@@H](CCCCN)C(=O)N[C@H](C(=O)N[C@@H](CO)C(=O)N2CCC[C@H]2C(=O)N[C@@H](CCC(N)=O)C(=O)NCC(=O)N[C@@H](Cc2ccc(O)cc2)C(N)=O)[C@@H](C)CC)C(C)C)[C@@H](C)O)[C@@H](C)CC)C(C)C)[C@@H](C)O)NC(=O)[C@H]([C@@H](C)O)NC(=O)CNC(=O)[C@H](Cc2ccccc2)NC(=O)[C@H](CCCNC(=N)N)NC1=O` [SEQ ID NO: 69], the “HLEC survival (in words)” value in test [1] was “dose-dependently stimulated; also recorded: significantly promote”. The Emax at CLR/RAMP3 receptor [2] was 127%; on CLR/RAMP2 receptor (% of positive control (ADM)), 147%; on CLR/RAMP1 receptor it was 70%. Also, in test [3], the “HLEC proliferation (in words)” value is on record as “dose-dependently stimulated; also recorded: significantly promote”.
For the molecule `CCCCCCCCCCCCCCCC(=O)NCCCC[C@H](NC(=O)COCCOCCN)C(=O)NCC(=O)N[C@H]1CSSC[C@@H](C(=O)N[C@H](C(=O)N[C@H](C(=O)N[C@@H](CCC(N)=O)C(=O)N[C@@H](CCCCN)C(=O)N[C@@H](CC(C)C)C(=O)N[C@@H](C)C(=O)N[C@@H](Cc2c[nH]cn2)C(=O)N[C@@H](CCC(N)=O)C(=O)N[C@H](C(=O)N[C@@H](Cc2ccc(O)cc2)C(=O)N[C@@H](CCC(N)=O)C(=O)N[C@@H](Cc2ccccc2)C(=O)N[C@H](C(=O)N[C@@H](CC(=O)O)C(=O)N[C@@H](CCCCN)C(=O)N[C@@H](CC(=O)O)C(=O)N[C@@H](CO)C(=O)N[C@@H](C)C(=O)N2CCC[C@H]2C(=O)N[C@H](C(=O)N[C@@H](CC(=O)O)C(=O)N2CCC[C@H]2C(=O)N[C@@H](CO)C(=O)N[C@@H](CO)C(=O)N2CCC[C@H]2C(=O)N[C@@H](Cc2c[nH]cn2)C(=O)N[C@@H](CO)C(=O)N[C@@H](Cc2ccc(O)cc2)C(N)=O)C(C)C)[C@@H](C)O)[C@@H](C)CC)C(C)C)[C@@H](C)O)NC(=O)[C@H]([C@@H](C)O)NC(=O)CNC(=O)[C@H](Cc2ccccc2)NC(=O)[C@H](CCCNC(=N)N)NC1=O` [SEQ ID NO: 48] (H-[AEEA]K(Palmitoyl)GCRFGTCTVQKLAHQIYQFTDKDSAPVDPSSPHSY-NH2; disulfide 4-9), the Emax was 141% at CLR/RAMP3 receptor [2], 77% on CLR/RAMP2 receptor (% of positive control (ADM)) and 78% at CLR/RAMP1 receptor. The EC50 at CLR/RAMP2 receptor amounted to 200 pM; on CLR/RAMP1 receptor, 300 pM.
As to `CCCCCCCCCCCCCCCC(=O)NCCCC[C@H](NC(=O)COCCOCCN)C(=O)NCC(=O)N[C@H]1CSSC[C@@H](C(=O)N[C@H](C(=O)N[C@H](C(=O)N[C@@H](CCC(N)=O)C(=O)N[C@@H](CCCCN)C(=O)N[C@@H](CC(C)C)C(=O)N[C@@H](C)C(=O)N[C@@H](Cc2c[nH]cn2)C(=O)N[C@@H](CCC(N)=O)C(=O)N[C@H](C(=O)N[C@@H](Cc2ccc(O)cc2)C(=O)N[C@@H](CCC(N)=O)C(=O)N[C@@H](Cc2ccccc2)C(=O)N[C@H](C(=O)N[C@@H](CC(=O)O)C(=O)N[C@@H](CCCCN)C(=O)N[C@@H](CC(=O)O)C(=O)N[C@H](C(=O)N[C@@H](C)C(=O)N2CCC[C@H]2C(=O)N[C@@H](CCCNC(=N)N)C(=O)N[C@@H](CO)C(=O)N[C@@H](CCCCN)C(=O)N[C@H](C(=O)N[C@@H](CO)C(=O)N2CCC[C@H]2C(=O)N[C@@H](CCC(N)=O)C(=O)NCC(=O)N[C@@H](Cc2ccc(O)cc2)C(N)=O)[C@@H](C)CC)C(C)C)[C@@H](C)O)[C@@H](C)CC)C(C)C)[C@@H](C)O)NC(=O)[C@H]([C@@H](C)O)NC(=O)CNC(=O)[C@H](Cc2ccccc2)NC(=O)[C@H](CCCNC(=N)N)NC1=O` [SEQ ID NO: 101], the Emax at CLR/RAMP3 receptor [2] is 129%; on CLR/RAMP2 receptor (% of positive control (ADM)), 74%; on CLR/RAMP1 receptor, 56%. For the same molecule, on CLR/RAMP2 receptor (CLR/RAMP2 versus CLR/RAMP1), the “receptor specificity of agonist” value is “CLR/RAMP2-specific”.
As for `CCCCCCCCCCCCCCCC(=O)N[C@@H](CCCCN)C(=O)N[C@H](C(=O)N[C@@H](CCC(N)=O)C(=O)N[C@@H](CCCCN)C(=O)N[C@@H](CC(C)C)C(=O)N[C@@H](C)C(=O)N[C@@H](Cc1c[nH]cn1)C(=O)N[C@@H](CCC(N)=O)C(=O)N[C@@H](CO)C(=O)N[C@@H](C)C(=O)N1CCC[C@H]1C(=O)N[C@H](C(=O)N[C@@H](CC(=O)O)C(=O)N1CCC[C@H]1C(=O)N[C@@H](CO)C(=O)N[C@@H](CO)C(=O)N1CCC[C@H]1C(=O)N[C@@H](Cc1c[nH]cn1)C(=O)N[C@@H](CO)C(=O)N[C@@H](Cc1ccc(O)cc1)C(N)=O)C(C)C)C(C)C` [SEQ ID NO: 124], on CLR/RAMP3 receptor [4], the “CLR/RAMP3 Max Activity % of positive control” value came out at 102%.
On to `CCCCCCCCCCCCCCCC(=O)NCCCC[C@H](NC(=O)COCCOCCN)C(=O)NCC(=O)N[C@H]1CSSC[C@@H](C(=O)N[C@H](C(=O)N[C@H](C(=O)N[C@@H](CCC(N)=O)C(=O)N[C@@H](CCCCN)C(=O)N[C@@H](CC(C)C)C(=O)N[C@@H](C)C(=O)N[C@@H](Cc2c[nH]cn2)C(=O)N[C@@H](CCC(N)=O)C(=O)N[C@H](C(=O)N[C@@H](Cc2ccc(O)cc2)C(=O)N[C@@H](CCC(N)=O)C(=O)N[C@@H](Cc2ccccc2)C(=O)N[C@H](C(=O)N[C@@H](CC(=O)O)C(=O)N[C@@H](CCCCN)C(=O)N[C@@H](CC(=O)O)C(=O)N[C@@H](CCCCN)C(=O)N[C@@H](CC(=O)O)C(=O)N[C@@H](CC(N)=O)C(=O)N[C@@H](CO)C(=O)N[C@@H](C)C(=O)N2CCC[C@H]2C(=O)N[C@H](C(=O)N[C@@H](CC(=O)O)C(=O)N2CCC[C@H]2C(=O)N[C@@H](CO)C(=O)N[C@@H](CO)C(=O)N2CCC[C@H]2C(=O)N[C@@H](Cc2c[nH]cn2)C(=O)N[C@@H](CO)C(=O)N[C@@H](Cc2ccc(O)cc2)C(N)=O)C(C)C)[C@@H](C)O)[C@@H](C)CC)C(C)C)[C@@H](C)O)NC(=O)[C@H]([C@@H](C)O)NC(=O)CNC(=O)[C@H](Cc2ccccc2)NC(=O)[C@H](CCCNC(=N)N)NC1=O` [SEQ ID NO: 28], for which the “HLEC survival (in words)” value in test [1] is on record as “dose-dependently stimulated; also recorded: significantly promote”. The values for the Emax at CLR/RAMP3 receptor [2] and at CLR/RAMP1 receptor were 117% and 54%, respectively. Also, the EC50 on CLR/RAMP2 receptor was 500 pM; at CLR/RAMP1 receptor, 300 pM. Also, the “CLR/RAMP 2 Max Activity % of positive control” value on CLR/RAMP2 receptor (CHO-K1 cells, % of positive control (ADM)) stood at 143%. Besides, the “HLEC proliferation (in words)” value in test [3] is given as “dose-dependently stimulated; also recorded: significantly promote”.
